Measured values published in US20150316568A1, “Method for Screening Lyophilized Parenteral Formulations” (Cubist Pharmaceuticals, Inc., priority 2014, published 2015).

Experiments:
[1] = X-Ray Powder Diffraction (XRPD) of solid form pre/post lyophilization; format: physicochemical; details: crystalline powder before lyophilization
[2] = Excerpt: 1. […] 2. […] 3. […] 4. […] 5. […] 6. […] 7. […] 8. […] 9. […] 10.

SMILES | solid form after the lyophilization process (XRPD) [1] | solubility improvement [2]
O=C(O)c1cn(C2CC2)c2cc(N3CCNCC3)c(F)cc2c1=O [Ciprofloxacin] | semi-crystalline forms | 
CN1CCN(c2cc3c(cc2F)c(=O)c(C(=O)O)cn3-c2ccc(F)cc2)CC1 [Difloxacin] | amorphous form | 3-4 ×
Fc1ccc([C@@H]2CCNC[C@H]2COc2ccc3c(c2)OCO3)cc1 [Paroxetine] | amorphous form | 3-4 ×
